Results published in ChEMBL document CHEMBL1127439, “Structure-activity relationship studies of central nervous system agents. 13. 4-[3-(Benzotriazol-1-yl)propyl]-1-(2-methoxyphenyl)piperazine, a new putative 5-HT1A receptor antagonist, and its analogs” (J Med Chem, 1994).

How the values were obtained:
Mus musculus [1] = assay: Effect on body temperature in mice at intraperitoneal dosage of 1 mg/kg, (compound administered 30 min before the test) after 60 min; format: functional
Mus musculus [2] = assay: Effect on 8-OH-DPAT-induced hypothermia in mice (5 mg/kg) at intraperitoneal dosage of 8 mg/kg of compound after 45 mins; format: functional
[3] = biological target: Serotonin 2 (5-HT2) receptor (Rattus norvegicus, UniProt P30994+P08909+P14842); assay: Tested in vitro for receptor binding affinity against 5-hydroxytryptamine 2 receptor using radioligand [3H]ketanserin; format: protein assay
Rattus norvegicus [4] = assay: Tested for the effect on 8-OH-DPAT-induced behavior in reserpine pretreated rat against forepaw treading at dosage of 4 mg/kg; format: functional
Rattus norvegicus [5] = assay: Tested for the effect on 8-OH-DPAT-induced behavior in reserpine pretreated rat against flat body posture at dosage of 4 mg/kg; format: functional
Mus musculus [6] = assay: Effect on body temperature in mice at intraperitoneal dosage of 2 mg/kg, (compound administered 30 min before the test) after 60 min; format: functional
Rattus norvegicus [7] = organism: Rattus norvegicus; assay: Selectivity is the ratio between Ki values of 5-HT2 and 5-HT1A
Mus musculus [8] = assay: Effect on body temperature in mice at intraperitoneal dosage of 2 mg/kg, (compound administered 30 min before the test) after 30 min; format: functional
Rattus norvegicus [9] = assay: Tested for the effect on 8-OH-DPAT-induced lower lip retraction (LLR) in rat at dosage of 16 mg/kg; format: functional
Rattus norvegicus [10] = assay: Tested for the induction of lower lip retraction (LLR) by the investigated compounds in rat at dosage of 2 mg/kg; format: functional
Mus musculus [11] = assay: Effect on 8-OH-DPAT-induced hypothermia in mice (5 mg/kg) at intraperitoneal dosage of 1 mg/kg of compound after 45 mins; format: functional
Mus musculus [12] = assay: Effect on body temperature in mice at intraperitoneal dosage of 4 mg/kg, (compound administered 30 min before the test) after 45 min; format: functional
Rattus norvegicus [13] = assay: Tested for the effect on 8-OH-DPAT-induced lower lip retraction (LLR) in rat at dosage of 8 mg/kg; format: functional
Mus musculus [14] = assay: Effect on body temperature in mice at intraperitoneal dosage of 2 mg/kg, (compound administered 30 min before the test) after 75 min; format: functional
Rattus norvegicus [15] = assay: Tested for the effect on 8-OH-DPAT-induced behavior in reserpine pretreated rat against flat body posture at dosage of 16 mg/kg; format: functional
Rattus norvegicus [16] = assay: Tested for the induction of lower lip retraction (LLR) by the investigated compounds in rat at dosage of 8 mg/kg; format: functional
Rattus norvegicus [17] = assay: Tested for the induction of lower lip retraction (LLR) by the investigated compounds in rat at dosage of 16 mg/kg; format: functional

Q: Which Delta t (Mus musculus [1]) does the source give for `COc1ccccc1N1CCN(CCCn2nnc3ccccc32)CC1` here?
A: The Delta t was 0.1 °C.

Q: What about the Delta t (Mus musculus [2]) of the same molecule?
A: The Delta t was 0.7 °C.

Q: What about the Ki [3] of the same molecule?
A: Its Ki is 1040 nM.

Q: And the Behavioral score (Rattus norvegicus [4])?
A: Its Behavioral score is 5.8.

Q: What about the Behavioral score (Rattus norvegicus [5]) of the same molecule?
A: The Behavioral score was 11.5.

Q: And the Delta t (Mus musculus [6])?
A: Its Delta t is 0.2 °C.

Q: What about the Selectivity (Rattus norvegicus [7]) of the same molecule?
A: The Selectivity was 69.

Q: What about the Delta t (Mus musculus [8]) of the same molecule?
A: The Delta t was 0.3 °C.

Q: And the LLR score (Rattus norvegicus [9])?
A: The LLR score was 0.9.

Q: And the LLR score (Rattus norvegicus [10])?
A: The LLR score was 0.1.

Q: What about the Delta t (Mus musculus [11]) of the same molecule?
A: The Delta t was 0.6 °C.

Q: What about the Delta t (Mus musculus [12]) of the same molecule?
A: Its Delta t is 0.2 °C.

Q: What about the LLR score (Rattus norvegicus [13]) of the same molecule?
A: Its LLR score is 0.7.

Q: What about the Delta t (Mus musculus [14]) of the same molecule?
A: Its Delta t is 0.2 °C.

Q: What about the Behavioral score (Rattus norvegicus [15]) of the same molecule?
A: The Behavioral score was 6.1.

Q: And the LLR score (Rattus norvegicus [16])?
A: The LLR score was 0.1.

Q: And the LLR score (Rattus norvegicus [17])?
A: Its LLR score is 0.6.
